Test results taken from US20160361444A1, “USE OF IVABRADINE AS DIAGNOSTIC AGENT IN THE METHOD OF CORONARY ANGIOGRAPHY BY MULTISLICE COMPUTED TOMOGRAPHY” (LES LABORATOIRES SERVIER, priority 2008, published 2016).

Test: Clinical study: effect of i.v. administration of ivabradine hydrochloride on heart rate in healthy volunteers
Type: in vivo
Conditions: i.v. bolus of ivabradine hydrochloride solution containing 16 mg ivabradine base, resting heart rate (lying position) at T0+30 min, vs placebo control group
Procedure: Clinical Study. Effect of i.v. Administration of Ivabradine Hydrochloride on Heart Rate in Healthy Volunteers.
Resting heart rate (in a lying position) is measured at T0. The subjects are then given an i.v. bolus of a solution of ivabradine hydrochloride containing 16 mg of ivabradine base (treated group, n=8) or of placebo (control group, n=2). The resting heart rate (in a lying position) is again measured at T0+30 min.

COc1cc2c(cc1OC)CC(=O)N(CCCN(C)C[C@H]1Cc3cc(OC)c(OC)cc31)CC2 [ivabradine]
heart rate lower than the heart rate in the control group: 16%
